From article PMC9120017, “Inhibition mechanism of the chloride channel TMEM16A by the pore blocker 1PBC” (Nature Communications, 2022)
Where two headings read alike, the source gives them in different places.

Target: T1, mouse TMEM16A mutant I640A (Mus musculus, UniProt Q8BHY3, I640A)
T1 construct: expressed in transfected cells; host or cells: HEK293T
T1 sequence (Q8BHY3 1-960 I640A): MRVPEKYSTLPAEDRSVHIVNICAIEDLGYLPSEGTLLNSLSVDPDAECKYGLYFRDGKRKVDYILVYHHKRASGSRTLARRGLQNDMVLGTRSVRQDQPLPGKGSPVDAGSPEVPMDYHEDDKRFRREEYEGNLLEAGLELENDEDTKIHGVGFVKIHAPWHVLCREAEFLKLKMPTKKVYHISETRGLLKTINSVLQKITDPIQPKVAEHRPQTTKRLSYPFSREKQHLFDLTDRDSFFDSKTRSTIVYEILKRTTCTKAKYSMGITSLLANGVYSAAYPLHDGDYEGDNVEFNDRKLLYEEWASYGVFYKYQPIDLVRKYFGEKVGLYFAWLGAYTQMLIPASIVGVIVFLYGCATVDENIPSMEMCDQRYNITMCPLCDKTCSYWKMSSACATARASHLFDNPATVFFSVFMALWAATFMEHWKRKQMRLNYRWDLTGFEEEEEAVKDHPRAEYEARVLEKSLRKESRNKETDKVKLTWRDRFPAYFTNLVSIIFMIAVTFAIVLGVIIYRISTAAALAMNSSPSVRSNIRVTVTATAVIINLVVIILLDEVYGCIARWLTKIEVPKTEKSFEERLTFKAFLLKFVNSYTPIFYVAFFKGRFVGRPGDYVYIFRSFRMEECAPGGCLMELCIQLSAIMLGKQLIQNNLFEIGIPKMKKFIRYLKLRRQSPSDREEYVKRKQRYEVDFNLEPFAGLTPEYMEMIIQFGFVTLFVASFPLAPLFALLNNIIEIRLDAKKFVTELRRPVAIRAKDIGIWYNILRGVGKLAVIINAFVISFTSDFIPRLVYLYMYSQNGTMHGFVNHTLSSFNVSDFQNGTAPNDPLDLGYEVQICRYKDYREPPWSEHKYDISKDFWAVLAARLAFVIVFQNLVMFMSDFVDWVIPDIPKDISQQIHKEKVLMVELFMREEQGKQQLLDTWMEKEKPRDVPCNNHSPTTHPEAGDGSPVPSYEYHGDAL
Experiment: Inside-out patch recording of 1PBC block, mutant I640A
Format: cell-based
Conditions: for IC50: 15 µM Ca2+
Protocol: HEK293T cells (ATCC CRL-1573) were maintained in Dulbecco’s modified Eagle’s medium (DMEM; Sigma-Aldrich) supplemented with 10 U ml^−1 penicillin, 0.1 mg ml^−1 streptomycin (Sigma-Aldrich), 2 mM L-glutamine (Sigma-Aldrich), and 10% FBS (Sigma-Aldrich) in a humidified atmosphere containing 5% CO2 at 37 °C. HEK293S GnTI^− cells (ATCC CRL-3022) were maintained in HyClone HyCell TransFx-H medium (GE Healthcare) supplemented with 10 U ml^−1 penicillin, 0.1 mg ml^−1 streptomycin, 4 mM L-glutamine, 0.15% poloxamer 188 (Sigma-Aldrich), and 1% FBS in an atmosphere containing 5% CO2 at 185 rpm at 37 °C. The ac splice variant of mouse TMEM16A (UniProt ID: Q8BHY3), mouse TMEM16B (UniProt ID: Q8CFW1), or mouse TMEM16F (UniProt ID: Q6P9J9) bearing a 3C cleavage site, a Venus YFP, a Myc tag, and a Streptavidin-binding peptide (SBP) downstream of the open reading frame in a modified pcDNA3.1 vector (Invitrogen) were used as described previously[21],[31]. Mutations were introduced using a modified QuikChange method[58] and were verified by sequencing.
HEK293T cells were transfected with 3–4 μg DNA per 6 cm Petri dish using the calcium phosphate co-precipitation method and were used within 24–96 h after transfection. Recordings were performed on inside-out patches excised from HEK293T cells expressing the construct of interest. Patch pipettes were pulled from borosilicate glass capillaries (O.D. 1.5 mm, I.D. 0.86 mm, Sutter Instrument) and were fire-polished with a microforge (Narishige) before use. Pipette resistance was typically 3–8 MΩ when filled with the recording solutions detailed below. Seal resistance was typically 4 GΩ or higher. Voltage-clamp recordings were made using Axopatch 200B, Digidata 1550, and Clampex 10.7 (Molecular Devices). Analog signals were filtered with the in-built 4-pole Bessel filter at 10 kHz and were digitized at 20 kHz. Solution exchange was achieved using a gravity-fed system through a theta glass pipette mounted on an ultra-fast piezo-driven stepper (Siskiyou). […] All recordings were performed at 20 °C.
A symmetrical ionic condition was used throughout. Stock solution with Ca^2+-EGTA contained 150 mM NaCl, 5.99 mM Ca(OH)2, 5 mM EGTA, and 10 mM HEPES at pH 7.40. Stock solution with EGTA contained 150 mM NaCl, 5 mM EGTA, and 10 mM HEPES at pH 7.40. Free Ca^2+ concentrations were adjusted by mixing the stock solutions at the required ratios calculated using the WEBMAXC program (http://web.stanford.edu/~cpatton/webmaxcS.htm). Patch pipettes were filled with the stock solution with Ca^2+-EGTA, which has a free Ca^2+ concentration of 1 mM. 1PBC (ChemBridge) stock was reconstituted in anhydrous DMSO (Sigma-Aldrich) at 100 mM and stored at −20 °C. Working solutions with 1PBC were prepared by serial dilution. Unless otherwise stated, experiments were performed at a saturating Ca^2+ concentration as shown in Supplementary Table 1 and the primary data were corrected for current rundown as described previously[21],[25].
Concentration-response relations, obtained from the ratio of the I-V plots before and after the application of the blocker, were fitted to the Hill equation,1 I/Imax=1/1+IC50/[blocker]^h where I/Imax is the normalized current responses, IC50 defines the concentration at which inhibition is at its half-maximum, and h is the Hill coefficient.

SMILES: N#Cc1c(C(F)(F)F)cc(O)n2c1nc1ccccc12 [1PBC]
- IC50 (0 mV): 31.5 µM
- remaining activity at 3 µM (0 mV, 1PBC conc 3, read-out: relative current in 1PBC (avr)): 90.3%
- remaining activity at 10 µM (0 mV, 1PBC conc 10, read-out: relative current in 1PBC (avr)): 75.5%
- remaining activity at 30 µM (0 mV, 1PBC conc 30, read-out: relative current in 1PBC (avr)): 52.3%
- remaining activity at 100 µM (0 mV, 1PBC conc 100, read-out: relative current in 1PBC (avr)): 23.3%
- remaining activity at 3 µM (3 µM 1PBC, +80 mV, saturating Ca2+ (15 µM), read-out: I/Imax): 89.4%
- remaining activity at 3 µM (3 µM 1PBC, -80 mV, saturating Ca2+ (15 µM), read-out: I/Imax): 92.4%
- remaining activity at 10 µM (10 µM 1PBC, +80 mV, saturating Ca2+ (15 µM), read-out: I/Imax): 67.9%
- remaining activity at 10 µM (10 µM 1PBC, -80 mV, saturating Ca2+ (15 µM), read-out: I/Imax): 84.6%
- remaining activity at 30 µM (30 µM 1PBC, +80 mV, saturating Ca2+ (15 µM), read-out: I/Imax): 43%
- remaining activity at 30 µM (30 µM 1PBC, -80 mV, saturating Ca2+ (15 µM), read-out: I/Imax): 64.1%
- remaining activity at 100 µM (100 µM 1PBC, +80 mV, saturating Ca2+ (15 µM), read-out: I/Imax): 17.7%
- remaining activity at 100 µM (100 µM 1PBC, -80 mV, saturating Ca2+ (15 µM), read-out: I/Imax): 34.6%
- normalised current (avr) (1PBC 3, V 0 mV): -0.001271
- normalised current (avr) (1PBC 3, V 40 mV): 0.2411
- normalised current (avr) (1PBC 3, V 60 mV): 0.367
- normalised current (avr) (1PBC 3, V 80 mV): 0.5025
- normalised current (avr) (1PBC 3, V 100 mV): 0.651
- normalised current (avr) (1PBC 3, V 120 mV): 0.7973
- normalised current (avr) (1PBC 3, V 140 mV): 0.965
- normalised current (avr) (1PBC 3, V -20 mV): -0.1226
- normalised current (avr) (1PBC 3, V -40 mV): -0.2495
- normalised current (avr) (1PBC 3, V -60 mV): -0.3836
- normalised current (avr) (1PBC 3, V -80 mV): -0.5286
- normalised current (avr) (1PBC 3, V -100 mV): -0.6862
- normalised current (avr) (1PBC 3, V -120 mV): -0.8514
- normalised current (avr) (1PBC 3, V -140 mV): -1.031
- normalised current (avr) (1PBC 10, V 0 mV): -0.001063
- normalised current (avr) (1PBC 10, V 40 mV): 0.1907
- normalised current (avr) (1PBC 10, V 60 mV): 0.2862
- normalised current (avr) (1PBC 10, V 80 mV): 0.3819
- normalised current (avr) (1PBC 10, V 100 mV): 0.495
- normalised current (avr) (1PBC 10, V 120 mV): 0.6083
- normalised current (avr) (1PBC 10, V 140 mV): 0.7528
- normalised current (avr) (1PBC 10, V -20 mV): -0.1054
- normalised current (avr) (1PBC 10, V -40 mV): -0.2204
- normalised current (avr) (1PBC 10, V -60 mV): -0.3486
- normalised current (avr) (1PBC 10, V -80 mV): -0.4836
- normalised current (avr) (1PBC 10, V -100 mV): -0.6367
- normalised current (avr) (1PBC 10, V -120 mV): -0.7969
- normalised current (avr) (1PBC 10, V -140 mV): -0.9705
- normalised current (avr) (1PBC 30, V 0 mV): -0.0007361
- normalised current (avr) (1PBC 30, V 40 mV): 0.1262
- normalised current (avr) (1PBC 30, V 60 mV): 0.1828
- normalised current (avr) (1PBC 30, V 80 mV): 0.2416
- normalised current (avr) (1PBC 30, V 100 mV): 0.3073
- normalised current (avr) (1PBC 30, V 120 mV): 0.3826
- normalised current (avr) (1PBC 30, V 140 mV): 0.476
- normalised current (avr) (1PBC 30, V -20 mV): -0.07452
- normalised current (avr) (1PBC 30, V -40 mV): -0.1601
- normalised current (avr) (1PBC 30, V -60 mV): -0.2555
- normalised current (avr) (1PBC 30, V -80 mV): -0.3668
- normalised current (avr) (1PBC 30, V -100 mV): -0.4877
- normalised current (avr) (1PBC 30, V -120 mV): -0.6228
- normalised current (avr) (1PBC 30, V -140 mV): -0.7629
- normalised current (avr) (1PBC 100, V 0 mV): -0.0003287
- normalised current (avr) (1PBC 100, V 60 mV): 0.07288
- normalised current (avr) (1PBC 100, V 80 mV): 0.09923
- normalised current (avr) (1PBC 100, V 100 mV): 0.1285
- normalised current (avr) (1PBC 100, V 120 mV): 0.1506
- normalised current (avr) (1PBC 100, V 140 mV): 0.1846
- normalised current (avr) (1PBC 100, V -20 mV): -0.0346
- normalised current (avr) (1PBC 100, V -40 mV): -0.07836
- normalised current (avr) (1PBC 100, V -60 mV): -0.1311
- normalised current (avr) (1PBC 100, V -80 mV): -0.1979
- normalised current (avr) (1PBC 100, V -100 mV): -0.2777
- normalised current (avr) (1PBC 100, V -120 mV): -0.3667
- normalised current (avr) (1PBC 100, V -140 mV): -0.4836
- IC50 (20 mV): 27.5 µM
- remaining activity at 3 µM (20 mV, 1PBC conc 3, read-out: relative current in 1PBC (avr)): 89.4%
- remaining activity at 10 µM (20 mV, 1PBC conc 10, read-out: relative current in 1PBC (avr)): 72.5%
- remaining activity at 30 µM (20 mV, 1PBC conc 30, read-out: relative current in 1PBC (avr)): 49.1%
- remaining activity at 100 µM (20 mV, 1PBC conc 100, read-out: relative current in 1PBC (avr)): 20.9%
- IC50 (40 mV): 24.7 µM
- remaining activity at 3 µM (40 mV, 1PBC conc 3, read-out: relative current in 1PBC (avr)): 89%
- remaining activity at 10 µM (40 mV, 1PBC conc 10, read-out: relative current in 1PBC (avr)): 70.4%
- remaining activity at 30 µM (40 mV, 1PBC conc 30, read-out: relative current in 1PBC (avr)): 46.6%
